Test system: spiral strips of rabbit aorta
Test: Reduction of calcium-induced contraction of K+-depolarised rabbit aorta spiral strips
Type: cell-based
Settings: Oryctolagus cuniculus; molar concentration required to reduce the contractile response by 50%; 35 mM potassium, 2 mM calcium ion
Method: The test is performed by mounting spiral strips of rabbit aorta with one end fixed and the other attached to a force transducer. The mounted tissue is immersed in a physiological salt solution containing potassium ion at a concentration of 35 millimole and no calcium. Calcium chloride is added to the bath to give a final calcium ion concentration of 2 millimole. The change in tension caused by the resulting contraction of the tissue is noted. The bath is drained and replaced with fresh salt solution and, 45 minutes later the test is repeated with the addition of the compound being tested in the presence of salt solution and, […] The concentration of compound required to reduce the response by 50% is recorded. The anti-hypertensive activity of the compounds is also evaluated oral administration by measuring the decrease fall in blood pressure in spontaneously hypertensive rats.

Row | Compound | IC50
1 | COC(=O)C1=C(C)NC(C)=C(C(=O)OCSC)C1c1cccc([N+](=O)[O-])c1 (stereo not drawn) [Example 1, 2,6-dimethyl-4-(3'-nitrophenyl)-1,4-dihydropyridine-3,5-dicarboxylic acid 3-methylthiomethyl ester 5-methyl ester] | 4 nM
2 | CCOC(=O)C1=C(C)NC(C)=C(C(=O)OCSC)C1c1cccc([N+](=O)[O-])c1 (stereo not drawn) [Example 2] | 20 nM
3 | CSCOC(=O)C1=C(C)NC(C)=C(C(=O)OC(C)C)C1c1cccc([N+](=O)[O-])c1 (stereo not drawn) [Example 3] | 56 nM
4 | CCSCOC(=O)C1=C(C)NC(C)=C(C(=O)OC)C1c1cccc([N+](=O)[O-])c1 (stereo not drawn) [Example 4] | 17 nM
5 | COC(=O)C1=C(C)NC(C)=C(C(=O)OCSC)C1c1cccc(Cl)c1Cl (stereo not drawn) [Example 5] | 29 nM
6 | COC(=O)C1=C(C)NC(C)=C(C(=O)OCSC)C1c1ccccc1C(F)(F)F (stereo not drawn) [Example 6] | 19 nM
7 | COCOC(=O)C1=C(C)NC(C)=C(C(=O)OC)C1c1cccc([N+](=O)[O-])c1 (stereo not drawn) [Example 7] | 42 nM
8 | COCOC(=O)C1=C(C)NC(C)=C(C(=O)OC(C)C)C1c1cccc([N+](=O)[O-])c1 (stereo not drawn) [Example 8] | 26 nM
9 | CCOCOC(=O)C1=C(C)NC(C)=C(C(=O)OC)C1c1cccc([N+](=O)[O-])c1 (stereo not drawn) [Example 9] | 29 nM
10 | COCOC(=O)C1=C(C)NC(C)=C(C(=O)OC)C1c1cccc(Cl)c1Cl (stereo not drawn) [Example 10] | 20 nM
11 | COC(=O)C1=C(C)NC(C)=C(C(=O)OCSC)C1c1cccc2nonc12 (stereo not drawn) [Example 11] | 80 nM
12 | COC(=O)C1=C(C)NC(C)=C(C(=O)OCSC)C1c1ccccc1[N+](=O)[O-] (stereo not drawn) [Example 12] | 11 nM
13 | COC(=O)C1=C(C)NC(C)=C(C(=O)OCSc2ccccc2)C1c1cccc([N+](=O)[O-])c1 (stereo not drawn) [Example 13, 2,6-dimethyl-4-(3-nitrophenyl)-1,4-dihydropyridine-3,5-dicarboxylic acid 3-phenylthiomethyl, 5-methylester] | 142 nM
14 | COC(=O)C1=C(C)NC(C)=C(C(=O)OCCN(C)Cc2ccccc2)C1c1cccc([N+](=O)[O-])c1 (stereo not drawn) [control, Nicardipine, reference compound] | 35 nM

Same assay, conditions: ranking by IC50 in Table 1

Row | Compound | activity ranking in words (the smaller the concentration, the more active)
15 | COC(=O)C1=C(C)NC(C)=C(C(=O)OCSC)C1c1cccc([N+](=O)[O-])c1 (stereo not drawn) [Example 1, 2,6-dimethyl-4-(3'-nitrophenyl)-1,4-dihydropyridine-3,5-dicarboxylic acid 3-methylthiomethyl ester 5-methyl ester] | most active compound
